Measurements reported in PMC2395599, “Low Dose Histone Deacetylase Inhibitor, Depsipeptide (FR901228), Promotes Adenoviral Transduction in Human Rhabdomyosarcoma Cell Lines” (Sarcoma, 2004).
Where “and” joins values, the source holds several entries; their conditions need not be identical. Identical values can stand only once.

Columns and labels:
[1] = test system: coxackie and adenovirus receptor (CAR); test: Semi-quantitative RT-PCR for CAR RNA expression in RMS cells; format: cell-based, human; settings: 0.5 ng/ml, 72 h; for fold CAR expression: Fig. 3a
Method: (§1) Sarcoma, March 2004, VOL. 8, NO. […] Methods. […] Results. […] Conclusions. […] Human av integrin primers:8 sense 50 -[…] AGT and antisense 50 -CAGTG[…] […] Cells were harvested after 72 h of treatment. Cell number was determined using a colorimetric MTT assay. […] The cells were replenished with complete media. […] References 1. […] Science 1997; 275: 1320-3. 2. […] J Virol 2000; 74: 42-8. 3. […] Virology 2000; 268: 382-90. 4. Wickham TJ, Mathias P, Cheresh DA, Nemerow GR. […] Cell 1993; 73: 309-19. 5. […] J Biol Chem 2000; 275: 14729-35. 6. […]. […] Cancer Res 1998; 58: 5738-48. 7. […] Cancer Res 1999; 59: 325-30. 8. […] Cancer Res 2001; 61: 6328-30. 9. […] Cancer Res 2001; 61: 2953-60. 10. […] J Biol Chem 1997; 272: 6479-89. 11.

av integrin = test: Semi-quantitative RT-PCR for αv integrin RNA expression in RMS cells; format: cell-based, human; settings: 0.5 ng/ml, 72 h; for fold av integrin expression: Fig. 3b
Method: as §1

[2] = test system: acetylated histone H3 in CTR cells; test: Western blot analysis for histone H3 acetylation; format: cell-based, human; settings: CTR cell line, 0.5 ng/ml, 72 h, histone H3 loading control
Method: as §1

[3] = test system: RMS cell lines (RD4a, CTR, RH5, RH13, RH18, RH30); settings: 0.5 ng/ml, 72 h, six RMS cell lines, MTT, triplicate, DMSO controls
[4] = test system: adenovirus AdU1 (GFP) uptake in RMS cell lines; test: Adenoviral (AdU1) GFP expression in RMS cell lines pretreated with depsipeptide, Western blot densitometry; format: cell-based, human; settings: 0.5 ng/ml 72 h pretreatment; for fold GFP expression: Fig. 2b
Method: as §1

[5] = range over four of six RMS cell lines, RT-PCR normalised to GAPDH

SMILES: C/C=C1\NC(=O)[C@H]2CSSCC/C=C/[C@H](CC(=O)N[C@H](C(C)C)C(=O)N2)OC(=O)[C@H](C(C)C)NC1=O [depsipeptide (FR901228), Depsipeptide (FR901228)]
- CAR expression ([1]; CTR): lack of CAR expression
- fold CAR expression ([1]; RD4a): 4.8 X
- fold CAR expression ([1]; RH5): 1.2 X
- fold CAR expression ([1]; RH13): 3.3 X
- fold CAR expression ([1]; RH18): 2.8 X
- fold CAR expression ([1]; RH30): 8.1 X
- fold increase in CAR expression compared to untreated cells [1, 5]: 2.8-8.1 fold
- fold av integrin expression (av integrin; CTR): 2.2 X and 2 X
- fold av integrin expression (av integrin; RD4a): 1.3 X
- fold av integrin expression (av integrin; RH5): 6.6 X
- fold av integrin expression (av integrin; RH13): 6.9 X
- fold av integrin expression (av integrin; RH18): 1.5 X
- fold av integrin expression (av integrin; RH30): 1.1 X
- fold modulation of av integrin expression (av integrin; [5]): 1.5-6.9 fold
- acetylated histone H3 [2]: increase in acetylated histone H3
- growth inhibition of RMS cells compared to controls [3]: less than 20%
- GFP protein expression ([4]; CTR): No GFP protein expression was detected
- fold GFP expression ([4]; RD4a): 2.7 X
- fold GFP expression (adenoviral uptake) ([4]; RH5, Fig. 2b and text): 2.6 X and 2.8 X
- fold GFP expression ([4]; RH13): 2.8 X
- fold GFP expression ([4]; RH18): 7.8 X
- fold GFP expression ([4]; RH30): 8.6 X
